Earlier results in US4350696A, “Imidazole derivatives, process for their preparation and pharmaceutical compositions thereof” (Pfizer Inc., priority 1980, dated 1982).

Tests used:
[1] = system: human blood platelet aggregation; settings: in vitro, a variety of aggregating agents
[2] = system: platelet clumping and embolisation in the lungs; settings: rabbit, intravenous injection of arachidonic acid
[3] = system: aggregation of platelets; settings: rats in vivo, abdominal aorta loop

Row | SMILES | inhibitory activity against platelet aggregation [1] | protection from lethal effect of intravenous arachidonic acid [2] | prevention of platelet aggregation in extra corporeal loop [3]
1 | CC(=O)Oc1ccccc1C(=O)O [aspirin] | show inhibitory activity | protect the rabbit from the lethal effect of the injection | –
2 | O=C1C(CC[S+]([O-])c2ccccc2)C(=O)N(c2ccccc2)N1c1ccccc1 (stereo not shown) [sulphinpyrazone] | show inhibitory activity | – | prevent the aggregation of platelets
